IC50 data for 26 compounds are collected here from patent publication US9273057B2 (Bristol-Myers Squibb Company, priority 2012, dated 2016).

Counter-ions that a name gives are not always drawn.

CK2A1 (CK2α/β), sequence (P68400 whole entry, species assumed): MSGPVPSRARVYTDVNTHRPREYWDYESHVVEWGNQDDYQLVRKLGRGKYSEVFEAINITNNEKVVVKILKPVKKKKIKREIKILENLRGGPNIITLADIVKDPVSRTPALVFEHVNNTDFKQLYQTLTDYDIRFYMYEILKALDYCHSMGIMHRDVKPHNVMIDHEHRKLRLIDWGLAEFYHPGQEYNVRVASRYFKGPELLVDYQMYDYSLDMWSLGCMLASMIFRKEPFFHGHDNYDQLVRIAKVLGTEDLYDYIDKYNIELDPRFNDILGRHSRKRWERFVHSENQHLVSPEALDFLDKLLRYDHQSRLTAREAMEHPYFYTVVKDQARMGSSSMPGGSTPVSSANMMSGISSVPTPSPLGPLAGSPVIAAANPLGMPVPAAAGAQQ
CK2A1 (CK2α/β), sequence (P67870 whole entry partner, species assumed): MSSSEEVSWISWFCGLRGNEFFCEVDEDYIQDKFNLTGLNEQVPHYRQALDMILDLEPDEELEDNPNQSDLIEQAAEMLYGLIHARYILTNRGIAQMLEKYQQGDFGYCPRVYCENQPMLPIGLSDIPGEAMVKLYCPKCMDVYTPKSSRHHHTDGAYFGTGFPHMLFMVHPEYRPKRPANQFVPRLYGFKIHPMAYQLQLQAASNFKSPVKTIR

This experiment addresses CK2A1 (CK2α/β) (Homo sapiens, UniProt P68400). Briefly: CK2 kinase assay, CK2A1 (CK2α/β). The experiment is classed as biochemical. Particulars: Table A; read-out: CK2A1 (CK2α/β) (IC50).
In the case of `N#Cc1cc(Nc2nc(NC3CC3)c3ncc(C#N)n3n2)c(Cl)c(N2CC[C@H](N)[C@H](F)C2)c1` [Example 283, 2-((3-((3R,4S)-4-amino-3-fluoropiperidin-1-yl)-2-chloro-5-cyanophenyl)amino)-4-(cyclopropylamino)imidazo[2,1-f][1,2,4]triazine-7-carbonitrile, HCl], the IC50 stood at 0.79 nM.
In the case of `COC(=O)NC1CCN(c2cc(C#N)cc(Nc3nc(NC4CC4)c4ncc(C#N)n4n3)c2Cl)CC1(C)C` (centres unmarked) [Example 286, methyl (1-(2-chloro-5-cyano-3-((7-cyano-4-(cyclopropylamino)imidazo[2,1-f][1,2,4]triazin-2-yl)amino)phenyl)-3,3-dimethyl-4-piperidinyl)carbamate] it was 4.4 nM.
In the case of `COC(=O)N[C@H]1CN(c2cc(C#N)cc(Nc3nc(NC4CC4)c4ncc(C#N)n4n3)c2Cl)C[C@H]1CF` [Example 287, methyl ((3R,4R)-1-(2-chloro-5-cyano-3-((7-cyano-4-(cyclopropylamino)imidazo[2,1-f][1,2,4]triazin-2-yl)amino)phenyl)-4-(fluoromethyl)-3-pyrrolidinyl)carbamate] it was 1.17 nM; in that of `COC(=O)N[C@H]1CN(c2cc(C#N)cc(Nc3nc(NC4CC4)c4ncc(C#N)n4n3)c2Cl)C[C@@H]1OC` [Example 288, methyl ((3S,4S)-1-(2-chloro-5-cyano-3-((7-cyano-4-(cyclopropylamino)imidazo[2,1-f][1,2,4]triazin-2-yl)amino)phenyl)-4-methoxy-3-pyrrolidinyl)carbamate], 0.91 nM.
As for `CO[C@@H]1CN(c2cc(C#N)cc(Nc3nc(NC4CC4)c4ncc(C#N)n4n3)c2Cl)C[C@@H]1NS(C)(=O)=O` [Example 289, N-((3S,4R)-1-(2-chloro-5-cyano-3-((7-cyano-4-(cyclopropylamino)imidazo[2,1-f][1,2,4]triazin-2-yl)amino)phenyl)-4-methoxy-3-pyrrolidinyl)methanesulfonamide], the IC50 stood at 0.59 nM.
For the compound `CO[C@@H]1CN(c2cc(C#N)cc(Nc3nc(NC4CC4)c4ncc(C#N)n4n3)c2Cl)C[C@@H]1NC(=O)NC1COC1` [Example 290, 1-((3S,4R)-1-(2-chloro-5-cyano-3-((7-cyano-4-(cyclopropylamino)imidazo[2,1-f][1,2,4]triazin-2-yl)amino)phenyl)-4-methoxy-3-pyrrolidinyl)-3-(3-oxetanyl)urea], the IC50 was found to be 0.47 nM.
For the compound `CO[C@@H]1CN(c2cc(C#N)cc(Nc3nc(NC4CC4)c4ncc(C#N)n4n3)c2Cl)C[C@@H]1NC(=O)OC1COC1` [Example 291, 3-oxetanyl ((3S,4R)-1-(2-chloro-5-cyano-3-((7-cyano-4-(cyclopropylamino)imidazo[2,1-f][1,2,4]triazin-2-yl)amino)phenyl)-4-methoxy-3-pyrrolidinyl)carbamate], the IC50 turned out to be 0.59 nM.
In the case of `COC(=O)N[C@@H]1CN(c2cc(C#N)cc(Nc3nc(NC4CC4)c4ncc(C#N)n4n3)c2Cl)C[C@@H]1C` [Example 293, methyl ((3S,4S)-1-(2-chloro-5-cyano-3-((7-cyano-4-(cyclopropylamino)imidazo[2,1-f][1,2,4]triazin-2-yl)amino)phenyl)-4-methyl-3-pyrrolidinyl)carbamate], the IC50 is 1.89 nM.
Take `COC(=O)N[C@H]1C[C@@H](O)CN(c2cc(C#N)cc(Nc3nc(NC4CC4)c4ncc(C#N)n4n3)c2Cl)C1` [Example 295, methyl ((3S,5R)-1-(2-chloro-5-cyano-3-((7-cyano-4-(cyclopropylamino)imidazo[2,1-f][1,2,4]triazin-2-yl)amino)phenyl)-5-hydroxy-3-piperidinyl)carbamate]: the IC50 is 1.21 nM.
Regarding `CC1(C)CN2CCN(c3cc(C#N)cc(Nc4nc(NC5CC5)c5ncc(C#N)n5n4)c3Cl)C[C@H]2CO1` [Example 303, (S)-2-((2-chloro-5-cyano-3-(3,3-dimethylhexahydropyrazino[2,1-c][1,4]oxazin-8(1H)-yl)phenyl)amino)-4-(cyclopropylamino)imidazo[2,1-f][1,2,4]triazine-7-carbonitrile, HCl], the IC50 is 0.69 nM.
Regarding `CC1(N2CCOCC2)CCN(c2cc(C#N)cc(Nc3nc(NC4CC4)c4ncc(C#N)n4n3)c2Cl)CC1` [Example 304, 2-((2-chloro-5-cyano-3-(4-methyl-4-morpholinopiperidin-1-yl)phenyl)amino)-4-(cyclopropylamino)imidazo[2,1-f][1,2,4]triazine-7-carbonitrile, HCl], the IC50 was 0.8 nM.
Turning to `N#Cc1cc(Nc2nc(NC3CC3)c3ncc(C#N)n3n2)c(Cl)c(N2C[C@@H](O)[C@H](N3CCOCC3)C2)c1` [Example 307, 2-((2-chloro-5-cyano-3-((3R,4R)-3-hydroxy-4-(4-morpholinyl)-1-pyrrolidinyl)phenyl)amino)-4-(cyclopropylamino)imidazo[2,1-f][1,2,4]triazine-7-carbonitrile], the IC50 amounted to 0.88 nM.
`N#Cc1cc(Nc2nc(NC3CC3)c3ncc(C#N)n3n2)c(Cl)c(N2CCN3CCOC[C@H]3C2)c1` [Example 308, (R)-2-((2-chloro-5-cyano-3-(hexahydropyrazino[2,1-c][1,4]oxazin-8(1H)-yl)phenyl)amino)-4-(cyclopropylamino)imidazo[2,1-f][1,2,4]triazine-7-carbonitrile]: the IC50 is 1.67 nM.
In the case of `N#Cc1cc(Nc2nc(NC3CC3)c3ncc(C#N)n3n2)c(Cl)c(N2CCN3CCOC[C@@H]3C2)c1` [Example 309, (S)-2-((2-chloro-5-cyano-3-(hexahydropyrazino[2,1-c][1,4]oxazin-8(1H)-yl)phenyl)amino)-4-(cyclopropylamino)imidazo[2,1-f][1,2,4]triazine-7-carbonitrile] it was 1.31 nM; in that of `CC1(N2CCN(c3cc(C#N)cc(Nc4nc(NC5CC5)c5ncc(C#N)n5n4)c3Cl)CC2)COC1` [Example 311, 2-((2-chloro-5-cyano-3-(4-(3-methyl-3-oxetanyl)-1-piperazinyl)phenyl)amino)-4-(cyclopropylamino)imidazo[2,1-f][1,2,4]triazine-7-carbonitrile], 0.96 nM; in that of `CN(C)C(=O)C1CN(c2cc(C#N)cc(Nc3nc(NC4CC4)c4ncc(C#N)n4n3)c2Cl)CCN1CC(C)(C)O` (centres unmarked) [Example 317, 4-(2-chloro-5-cyano-3-((7-cyano-4-(cyclopropylamino)imidazo [2,1-f][1,2,4]triazin-2-yl)amino)phenyl)-1-(2-hydroxy-2-methylpropyl)-N,N-dimethylpiperazine-2-carboxamide], 0.99 nM.
As for `N#Cc1cc(Nc2nc(NC3CC3)c3ncc(C#N)n3n2)c(Cl)c(C2CCN(C3CNC3)CC2)c1` [Example 318, 2-((3-(1-(azetidin-3-yl)piperidin-4-yl)-2-chloro-5-cyanophenyl)amino)-4-(cyclopropylamino)imidazo[2,1-f][1,2,4]triazine-7-carbonitrile], the IC50 came out at 0.78 nM.
Turning to `COC(=O)N1CC(N2CCC(c3cc(C#N)cc(Nc4nc(NC5CC5)c5ncc(C#N)n5n4)c3Cl)CC2)C1` [Example 320, methyl 3-(4-(2-chloro-5-cyano-3-((7-cyano-4-(cyclopropylamino)imidazo[2,1-f][1,2,4]triazin-2-yl)amino)phenyl)piperidin-1-yl)azetidine-1-carboxy], the IC50 turned out to be 0.35 nM.
In the case of `CS(=O)(=O)N1CC(N2CCC(c3cc(C#N)cc(Nc4nc(NC5CC5)c5ncc(C#N)n5n4)c3Cl)CC2)C1` [Example 321, 2-((2-chloro-5-cyano-3-(1-(1-(methylsulfonyl)azetidin-3-yl)piperidin-4-yl)phenyl)amino)-4-(cyclopropylamino)imidazo[2,1-f][1,2,4]triazine-7-carbonitrile] it was 0.66 nM; in that of `C[C@H](O)CN1CC(N2CCC(c3cc(C#N)cc(Nc4nc(NC5CC5)c5ncc(C#N)n5n4)c3Cl)CC2)C1` [Example 322, 2-((2-chloro-5-cyano-3-(1-(1-((2S)-2-hydroxypropyl)-3-azetidinyl)-4-piperidinyl)phenyl)amino)-4-(cyclopropylamino)imidazo [2,1-f][1,2,4]triazine-7-carbonitrile], 1.78 nM; in that of `N#Cc1cc(Nc2nc(NC3CC3)c3ncc(C#N)n3n2)c(Cl)c(C2CCN(C3CN(CC4CC4)C3)CC2)c1` [Example 323, 2-((2-chloro-5-cyano-3-(1-(1-(cyclopropylmethyl)-3-azetidinyl)-4-piperidinyl)phenyl)amino)-4-(cyclopropylamino)imidazo [2,1-f][1,2,4]triazine-7-carbonitrile], 0.59 nM.
Take `CC(C)(O)CN1CC(N2CCC(c3cc(C#N)cc(Nc4nc(NC5CC5)c5ncc(C#N)n5n4)c3Cl)CC2)C1` [Example 324, 2-((2-chloro-5-cyano-3-(1-(1-(2-hydroxy-2-methylpropyl)-3-azetidinyl)-4-piperidinyl)phenyl)amino)-4-(cyclopropylamino)imidazo [2,1-f][1,2,4]triazine-7-carbonitrile]: the IC50 amounted to 0.78 nM.
Take `COCCN1CC(N2CCC(c3cc(C#N)cc(Nc4nc(NC5CC5)c5ncc(C#N)n5n4)c3Cl)CC2)C1` [Example 325, 2-((2-chloro-5-cyano-3-(1-(1-(2-methoxyethyl)-3-azetidinyl)-4-piperidinyl)phenyl)amino)-4-(cyclopropylamino)imidazo [2,1-f][1,2,4]triazine-7-carbonitrile]: the IC50 worked out at 0.57 nM.
Turning to `CCNc1nc(Nc2cc(C#N)cc(N3CCC(N)CC3)c2Cl)nn2c(C#N)cnc12` [Example 329, 2-((3-(4-aminopiperidin-1-yl)-2-chloro-5-cyanophenyl)amino)-4-(ethylamino)imidazo[2,1-f][1,2,4]triazine-7-carbonitrile], the IC50 was 0.34 nM.
In the case of `CCNc1nc(Nc2cc(C#N)cc(N3CCC(NC(=O)OC)CC3)c2Cl)nn2c(C#N)cnc12` [Example 330, methyl (1-(2-chloro-5-cyano-3-((7-cyano-4-(ethylamino)imidazo[2,1-f][1,2,4]triazin-2-yl)amino)phenyl)piperidin-4-yl)carbamate], the IC50 came to 0.55 nM.
`CCNc1nc(Nc2cc(C#N)cc(N3CC[C@H](NC(=O)OC)[C@H](F)C3)c2Cl)nn2c(C#N)cnc12` [Example 331, methyl ((3R,4S)-1-(2-chloro-5-cyano-3-((7-cyano-4-(ethylamino)imidazo[2,1-f][1,2,4]triazin-2-yl)amino)phenyl)-3-fluoro-4-piperidinyl)carbamate]: the IC50 was determined as 2.32 nM.
